Assay [1] has as its system AMO1 and NCI-H929 multiple myeloma cell lines. The assay is described as follows: Apoptosis assay (Annexin-V/7-AAD flow cytometry). It is filed as cell-based, human. The note with it: BTZ 1-10 nM, 16 h. As for the experimental part:
Apoptosis was evaluated by Annexin-V/7-Aminoactinomycin D (7-AAD) staining and flow cytometric analysis using the PE Annexin V Apoptosis Detection Kit I (BD Biosciences), following the manufacturer's instructions.
Apoptosis was evaluated by Annexin-V/7-Aminoactinomycin D (7-AAD) staining and flow cytometric analysis using the PE Annexin V Apoptosis Detection Kit I (BD Biosciences).

Assay [2] deals with UPR transducer PERK pathway. Kind of assay: Western blot of UPR/PERK pathway. The note with it: AMO1 and 5TGM1 cells. Type of assay: cell-based. On the procedure: Cell lysis was performed in RIPA buffer (Boston Bio Products) supplemented with Halt™ protease and phosphatase inhibitor cocktail (Thermo Fisher Scientific). Immunoblot analysis was performed to evaluate expression levels of total protein and phospho-specific isoforms. SDS-PAGE was performed on NuPage™ Bis-Tris gels (ThermoFisher Scientific) using MOPS or MES running buffer. Gels were dry transferred onto 0.45 μm nitrocellulose membranes using the iBlot® Dry Blotting System (ThermoFisher Scientific). The following antibodies (Abs) were used and purchased from Cell Signaling Technology: CRT (Cat. #12238) and GABARAP (Cat. #13733). GAPDH (Cat. #2118) was used as loading controls.
Cell lysis was performed in RIPA buffer (Boston Bio Products) supplemented with Halt protease and phosphatase inhibitor cocktail (ThermoFisher Scientific). SDS-PAGE was performed on NuPage Bis-Tris gels (ThermoFisher Scientific) using MOPS or MES running buffer. Gels were dry transferred onto 0.45 μm nitrocellulose membranes using the iBlot® Dry Blotting System (ThermoFisher Scientific). The following Abs were purchased from Cell Signaling Technology: EIF2A (#5324), p-EIF2A (#3398), ATF4 (#11815), CHOP (2895), CALR (#12238), cGAS (#15102), TBK1 (#3504), pTBK1 (#5483), pIRF3 (#29047), STING (#13647). GAPDH (#2118) and B-ACTIN (#4970) were used as loading controls.
Background: In western blotting, separated proteins are transferred to a membrane and probed.

The subject of assay [3] is 5TGM1 tumors. The assay is described as follows: In vivo tumor growth analysis. On the set-up: species or system mouse. As for the experimental part:
6-week old female immunodeficient NOD.CB17-Prkdcscid/NCrCrl (NOD/SCID) mice (Charles River) and immunocompetent C57BL/KaLwRijHsd (Envigo) mice were housed in an animal facility at the Dana-Farber Cancer Institute (DFCI). All experiments were performed after approval by the Animal Ethics Committee of the DFCI and performed using institutional guidelines.
To assess the effect of BTZ in the absence of an immune system, NOD/SCID mice were subcutaneously injected with 1×10^6 5TGM1 WT cells in a 1:1 ratio with Matrigel® (Corning); to assess BTZ in an immunocompetent host, C57BL/KaLwRijHsd mice were injected with 1×10^6 5TGM1 either WT or calrKO in the same ratio with Matrigel®. When tumor became measurable, mice (5/group) were randomized to receive either PBS or BTZ administered intra peritoneally (i.p.) 0.5 mg/kg twice/week for 2 weeks. Tumor sizes were measured and mice were sacrificed when tumors reached 2 cm in diameter or ulceration or major compromise in quality of life. A parallel experiment was performed to allow for tumor harvesting after two injections i.p. of BTZ for RNA-seq analysis, as detailed below.
6-week old female immunodeficient NOD.CB17-Prkdcscid/NCrCrl (NOD/SCID) (Charles River) and immunocompetent C57BL/KaLwRijHsd (Envigo) mice were housed in the animal facility at DFCI. All experiments were performed after approval by the Animal Ethics Committee of the DFCI and performed using institutional guidelines.
NOD/SCID and C57BL/KaLwRijHsd mice were subcutaneously (sc) injected with 1×10^6 5TGM1 either WT or Calr^KO cells in PBS. When tumor became measurable, mice were randomized to receive either PBS or BTZ administered intra peritoneally (i.p.) 0.5 mg/kg twice/week for 2 weeks. Tumor sizes were measured as previously described (46), and mice were sacrificed when tumors reached 2 cm in diameter or ulceration or major compromise in quality of life. A parallel experiment was performed to allow for tumor harvesting after two injections ip of BTZ for RNA-seq analysis, as detailed below. For BTZ and STING agonist combination studies, C57BL/KaLwRijHsd (n=5/group) and SCID/NOD (n=6/group) mice bearing 5TGM1 WT and C57BL/KaLwRijHsd mice (n=5/group) bearing 5TGM1 Sting^KO tumors were randomized to receive: PBS, BTZ (0.375 mg/kg twice a week for 2 weeks, i.p.), ADU-S100 (100 μg) administered in the peritumoral area (day 1 and 2), or a combination. Tumor sizes were measured as described above. A parallel experiment in C57BL/KaLwRijHsd mice was performed to allow for tumor harvesting after one administration of either BTZ or ADU-S100. Tumors were fixed in 10% formalin for 24 h, and then maintained in 70% ethanol prior to paraffin embedding and processing for IHC to detect CD3 (#nb600 Ab, Novus Bio).

Assay [4] concerns AMO1 and NCI-H929 MM cells. Kind of assay: Micronuclei assay (flow cytometry). The note with it: AMO1 (0-7.5 nM) and NCI-H929 (0-5 nM), 16 h. Type of assay: cell-based, human. As for the experimental part: Cells were analyzed for micronuclei formation using a flow cytometry-based Micronucleus Assay (MicroFlow kit), according to manufacturer's protocol. Briefly, nonviable cells were removed by Ficoll gradient centrifugation. Viable cells were then stained with photoactivated Nucleic Acid Dye A (ethidium monoazide) that crosses the compromised outer membrane of apoptotic and necrotic cells and stains them red. Cells were then washed twice and lysed with a detergent containing buffer to break open cytoplasmic membranes and release nuclei and micronuclei. Nucleic Acid Dye B (SYTOX green) is then added to label DNA from both nuclei and micronuclei. Flow cytometry analysis was used to distinguish DNA from dead (dual stained with Dye A and B) and live (single stained with Dye B) cells.
In general terms: A flow cytometer gives signals particle by particle.

“Also recorded” adds a separate entry of the source.

As to `CC(C)C[C@H](NC(=O)[C@H](Cc1ccccc1)NC(=O)c1cnccn1)B(O)O` [BTZ, bortezomib], in assay [1], the “multiple myeloma cell death, as measured by phosphatidylserine exposure” value is on record as “induced multiple myeloma cell death in a dose-dependent manner”. The “PERK pathway activation (p-eIF2-alpha, CHOP, ATF4)” value in assay [2] was “activated the UPR transducer PERK pathway”. Further, the tumor growth result in assay [3] (5TGM1 Calr^KO tumors in immunocompetent mice, BTZ 0.5 mg/kg twice/week for 2 weeks) is on record as “antagonized in CALR^KO tumors; also recorded: abrogated in mice bearing CRT^KO tumors; also recorded: abrogated in immunocompetent mice bearing 5TGM1 Calr^KO tumors”; in assay [3] (5TGM1 WT in immunocompetent C57BL/KaLwRij mice, BTZ 0.5 mg/kg twice/week for 2 weeks i.p.) it was “induces tumor regression in the presence of the immune system; also recorded: more potent 5TGM1 tumor cell shrinkage in immunocompetent hosts; also recorded: inhibited growth of 5TGM1 WT cells engrafted in immunocompetent (C57BL/KaLwRij) mice (FIG. 19A) to a greater extent than when these cells were engrafted in immunodeficient hosts; also recorded: induces ICD in a syngeneic murine model of MM”; in assay [3] (5TGM1 WT in immunodeficient SCID/NOD mice, BTZ 0.5 mg/kg twice/week for 2 weeks i.p.), “can efficiently delay tumor growth in immunodeficient mice”. Besides, the anti-tumor activity result in assay [3] (5TGM1 Sting^KO tumors in immunocompetent mice) is listed as “significantly abrogated against tumors lacking Sting; also recorded: significantly reduced in vivo against multiple myeloma tumors lacking Sting”. For the same molecule, the anti-tumor effects entry in assay [3] (5TGM1 WT in immunodeficient NOD/SCID mice, BTZ 0.375 mg/kg, ADU-S100 100 ug day 1 and 2) was “abrogated the anti-tumor effects”. Also, the “micronuclei (DNA content in the cytoplasm)” value in assay [4] is given as “dose-dependent increase of DNA content in the cytoplasm”.

For the origin of these results see patent US12109266B2, “Modulating gabarap to modulate immunogenic cell death” (Dana-Farber Cancer Institute, Inc., priority 2020, dated 2024).
